Consider 3 compounds from EP0058890A1, “Antithrombotic compounds” (THE WELLCOME FOUNDATION LIMITED, priority 1981, dated 1982).

Structures are written as SMILES. Where two headings read alike, the source gives them in different places.

Series [1] deals with platelets. Put plainly: Ex vivo platelet aggregation after oral dosing, arachidonate and collagen (method of Born), guinea pig. Conditions: Cavia porcellus, read-out: dose required to inhibit aggregation rate by 50% (ED50). The format is in vivo. Here is the method:
(§1) b. Ex vivo studies: The aggregation of platelets taken from animals dosed by the oral route with Compound II is inhibited when tested with arachidonate and collagen by the method of Born ((1962) Nature 194, 927, 929). The dose required to inhibit aggregation rate by 50% (ED50) at 1 hour was 5 mg/kg and 10 mg/kg in the guinea pig and rat, respectively. By comparison, the ED50 for aspirin in the guinea pig was 30 mg/kg, while the ED50 for aspirin in the rat was 10 mg/kg. The ED50 for indomethacin was 10 mg/kg and 5 mg/kg in the guinea pig and rat, respectively. In the dog, 10 mg/kg p.o. was an ED50 for as long as 6 hr.

Series [2] has as its system platelets. Put plainly: Ex vivo platelet aggregation after oral dosing, arachidonate and collagen (method of Born), rat. The class given is in vivo. Conditions: read-out: dose required to inhibit aggregation rate by 50% (ED50). Here is the method:
as §1

Another series deals with dog platelets. Put plainly: Ex vivo platelet aggregation after oral dosing, dog. The format is in vivo. Conditions: Canis lupus familiaris, for as long as 6 hr. Here is the method:
as §1

The subject of the next series is exudate fluid volume. The series can be described thus: Carrageenin Pleurisy Assay (Acute). The class given is in vivo, rat. Conditions: 3 h, read-out: 3 hr. ED50 against exudate fluid volume. The source says: a. […] In this assay, the 3 hr.
The next series deals with adjuvant arthritis. Put plainly: Adjuvant Arthritis Assay (Chronic). The format is in vivo, rat. The note with it: po, 336 h, read-out: ED50, development of adjuvant arthritis.
Series [3] deals with subplantar injection of trypsin. Put plainly: Modified Trypsin Hyperalgesic Assay. The format is in vivo. Conditions: drug administration 15 minutes before subplantar trypsin.
The next series deals with gastric damage. The class given is in vivo. Conditions: rat.
The subject of a further series is gastric erosion. The class given is in vivo. Conditions: guinea pig.
Series [4] concerns stasis-induced jugular vein thrombosis. The series can be described thus: Protection against stasis-induced jugular vein thrombosis. The format is in vivo. The note with it: guinea pig; given 1 hour prior to ligation. As to the method:
b. Protection against stasis-induced jugular vein thrombosis: When a 1 cm length of guinea pig jugular vein is ligated in situ, a thrombus forms within 30 min. Six mg/kg p.o. of either Compound II or aspirin given 1 hour prior to ligation protected 50% of the animals from thrombosis.

In series [5] the test system is Yeast-induced hyperthermia. Put plainly: Yeast-Induced Hyperthermia Assay. The class given is in vivo, rat.

One may read the ED50 as the dose that gives a 50% effect, or the effect in half of the subjects. On to `CN(C)CCOc1ccccc1-c1nc(-c2ccccc2)c(-c2ccccc2)[nH]1` [Compound II], for which the median effective dose (ED50) in the series with platelets [1] (guinea pig, oral route, at 1 hour, arachidonate and collagen) is 5 mg/kg; in the series with platelets [2] (rat, oral route, at 1 hour, arachidonate and collagen), 10 mg/kg; in the series with dog platelets it was 10 mg/kg; with exudate fluid volume (rat, oral route), 37 mg/kg; in the series on adjuvant arthritis (rat, by gavage for 14 days), 294 mg/kg; in series [3] (read-out: ED50), approximately 50 mg/kg. The gastric damage result was “does not produce gastric damage” in the series with gastric damage (in vivo, po, 75 mg/kg/day); “does not produce gastric damage” with gastric damage (in vivo, po, 150 mg/kg); “very slight gastric erosion” with gastric erosion (in vivo, po, 100 mg/kg/day).
For the compound `CC(=O)Oc1ccccc1C(=O)O` [aspirin], the median effective dose (ED50) in the series on platelets [1] (po, 1 h) was 30 mg/kg; in the series on platelets [2] (Rattus norvegicus, po, 1 h), 10 mg/kg; with exudate fluid volume (Rattus norvegicus, po), 28 mg/kg; in the series on adjuvant arthritis (Rattus norvegicus), 175 mg/kg; in [3], “inactive”; in [5] (Rattus norvegicus, po), 50 mg/kg. In [4], the “dose that protected 50% of the animals from thrombosis” value was “Six”. Besides, the hypothermia result in series [5] (rat, for Compound II 3-4 hours after dosing) is on record as “does not produce hypothermia”. The gastric damage result in the series on gastric damage (single oral dose of 30 mg/kg) was “produces ulcers and hemorrhages”; in the series with gastric erosion (100 mg/kg/day p.o. for 3 days), “severe ulceration and hemorrhage”.
For `COc1ccc2c(c1)c(CC(=O)O)c(C)n2C(=O)c1ccc(Cl)cc1` [indomethacin], the ED50 with platelets [1] (po, 1 h) is 10 mg/kg; in the series with platelets [2] (Rattus norvegicus, po, 1 h), 5 mg/kg; in the series on exudate fluid volume (Rattus norvegicus, po), 2 mg/kg; in the series with adjuvant arthritis (Rattus norvegicus) it was 1 mg/kg; in series [3] it was “inactive”. Also, in the series on gastric damage (single oral dose of 5 mg/kg), the gastric damage result is reported as “produces ulcers”.
